Data from paper PMC6418145 (Scientific Reports, 2019).

Assays:
C57BL/6 J mice = assay: 5-choice serial-reaction-time task (5-CSRTT), unspecific behavioural effects; format: in vivo
Protocol: Training was performed in 16 standard mouse Bussey-Saksida touchscreen chambers (model #80614, Campden Instruments Ltd., UK), previously described in detail. In short, each trapezoidal operant chamber was placed in a sound- and light- attenuating box individually equipped with a house light, a reward magazine with light, a liquid reward dispenser, a sound generator, a perforated stainless steel floor, and a touchscreen placed at the wide end of the chamber and covered permanently by a black acrylic glass 5-hole mask. The reward magazine, located opposite the touchscreen, was connected to a liquid dispenser delivering strawberry milk (Yazoo®). Infrared break-beam sensors located inside and on the front of the food magazine as well as on the touch-screen walls allowed the detection of reward delivery and the animal’s locomotor activity, respectively. Four individual chambers were connected to one computer for controlling the task flow using the graphical task design software ABET II Touch (model #89505, Campden Instruments Ltd., UK) and the WhiskerServer software (Cambridge University Technical Services Ltd., UK)[27].
Mice were habituated to the chambers for three consecutive 20-min sessions during which the house light and magazine light were permanently on. At the start of each session, 30 µl strawberry milk was delivered. Every 15 s after head entry into the magazine, an additional 30 µl strawberry milk was delivered. Head entry turned the magazine light off.
The 5-CSRTT training protocol, originally designed for rats[28], was similar as that previously described for mice[29]–[31]. The training comprised six stages with 30-min sessions initiated by the illumination of the house and magazine lights and delivery of 20 µl strawberry milk. Collection of the reward switched the magazine light off and started the first trial.
In the first stage, the middle window was permanently illuminated, which was turned off when touched, followed by reward delivery (20 µl) with illumination of the magazine light. Head entry switched off the magazine light. Mice performing 30 trials in a session continued to the next stage. Training sessions in stages 2–6 comprised a maximum of 120 trials. Collection of the reward initiated the inter-trial interval (ITI) followed by the illumination of one pseudo-randomly selected aperture for a fixed stimulus duration (SD). Any touch to the screen during the ITI was classified as a premature response which was not counted as a trial and terminated the current trial. Following stimulus detection, a nose poke to the corresponding aperture within a fixed time interval (limited hold; LH) was required for reward delivery. Premature responses made during the ITI, incorrect responses, and the omission of a response within the LH led to a timeout (TO, house light switched off for 4 s) instead of delivery of reward. Correct, incorrect and omitted responses defined the total number of trials. […] The criteria to pass the last stage and reach baseline performance were to complete >30 correct trials, with ≥80% accuracy and ≤30% omissions. Percentage accuracy was defined as the number of correct trials divided by the sum of correct and incorrect trials. Percentage omissions were calculated in terms of the number of completed trials. Premature responding was calculated as a percentage of completed trials. Perseveration was calculated as the number of additional responses made in the same aperture following a correct response. Additionally, the correct-response latency (time from stimulus presentation to correct response) and reward latency (time from correct response to reward collection) were measured across all trials.
Either one or up to three days before, as well as one day after the task challenge, mice were trained at baseline conditions to check for any unexpected changes in task performance (e.g. by long lasting drug- or challenge-induced effects). […]

in vivo = conditions: mouse, ip
Protocol: (§1) Blood (approximately 100 µl) was collected from the vena facialis in anaesthetised animals, followed by CSF sampling (approximately 10 µl) from the cisterna magna under pentobarbital anaesthesia (1:25 in saline, 10 ml/kg, i.p., Narcoren, Boehringer Ingelheim, Germany). Subsequently, the brain was removed and its anterior third (including the medial prefrontal and anterior cingulate cortices) dissected and transferred into Precellys tubes cooled in liquid nitrogen. For plasma extraction, blood was transferred to EDTA coated tubes and centrifuged for 10 min at 10,000 rpm at 4 °C. Maximal plasma concentration (Cmax), time taken to reach maximal plasma concentration (Tmax) and mean residence time were assessed using liquid chromatography–mass spectrometry analysis executed on the HP1200 (Agilent, CA, USA) coupled to the API 6500 (AB Sciex, Germany) using BI00001052 (Boehringer Ingelheim) as internal standard. In short, 5 µl of plasma or CSF sample were mixed with 10 nl internal standard. 70 µl acetonitrile (ACN)/methanol (1:1) was added, kept at −20 °C for 15 min and centrifuged for 4 min at 4000 rpm at 4 °C. 30 µl of the supernatant was mixed with 170 µl 0.1% formic acid. Brain homogenization was executed by Precellys Evolution (Bertin) after adding ACN/methanol (1:1)/aq.dest. (3:1) to each brain sample with a volume corresponding to 4 parts of the brain weight, followed by centrifugation for 1 min at 4000 rpm at 4 °C. 5 µl of the supernatant was mixed with 10 nl of internal standard.

[1] = Pharmacokinetics in plasma, CSF and cortical brain tissue after i.p. injection
Protocol: as §1

hM4Di = biological target: T1, hM4Di (Homo sapiens, UniProt P08173, A203G/Y113C); assay: FLIPR Ca2+ oscillation assay in primary rat neuronal cultures transduced with hM4Di; format: cell-based; conditions: reduction of Ca2+ oscillation frequency, hM4Di-transduced rat primary neurons, Hill fit; read-out: half maximal effective concentration (EC50) at hM4Di
T1 construct: expressed in transfected cells; host or cells: primary cortical neurons of embryonic (E18) Sprague-Dawley rats, AAV-transduced
T1 sequence (P08173 1-479 Y113C/A203G): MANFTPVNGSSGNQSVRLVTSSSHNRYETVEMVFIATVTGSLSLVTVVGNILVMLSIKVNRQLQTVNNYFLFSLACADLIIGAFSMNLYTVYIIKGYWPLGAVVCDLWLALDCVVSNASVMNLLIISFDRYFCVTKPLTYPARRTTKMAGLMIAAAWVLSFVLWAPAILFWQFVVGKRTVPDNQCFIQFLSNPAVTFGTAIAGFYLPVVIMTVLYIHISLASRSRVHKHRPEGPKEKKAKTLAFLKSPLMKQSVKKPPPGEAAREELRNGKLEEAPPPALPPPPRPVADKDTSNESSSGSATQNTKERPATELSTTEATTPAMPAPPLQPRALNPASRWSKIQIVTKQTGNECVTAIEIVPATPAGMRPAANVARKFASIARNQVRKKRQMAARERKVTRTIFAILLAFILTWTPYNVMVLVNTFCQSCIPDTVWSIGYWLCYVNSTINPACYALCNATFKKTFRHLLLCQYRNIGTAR
Protocol: Briefly, cortices were dissected from embryonic brains, meninges were removed, and cortices transferred into ice-cold dissociation buffer (2 mM kynurenic acid, 10 mM HEPES, 20 mM MgCl2 (Fluka, Germany) and 33.4 mM Glucose in Hank’s Balanced Salt Solution (HBSS), pH 7.4 (Gibco, Thermo Fischer Scientific, Massachusetts, USA). Cortices were then dissociated in 20 units/ml papain solution (5.5 mM L- Cysteine hydrochloride, 1.1 mM ethylenediamine tetra-acetic acid [EDTA], 0.067 mM 2-Mercaptoethanol in Minimum Essential Medium [MEM]) for 15 min at 37 °C. Cortices were washed twice by adding 20 ml plating medium (1:50 foetal calve serum, 1:100 penicillin/streptomycin and 1:100 GlutaMax in MEM) followed by cell filtration using a 70 µm cell strainer (Corning, model #352350, Merck, Germany) to obtain a single-cell suspension. Dissociated cells were re-suspended in serum-free Neurobasal medium with Glutamax and B27 supplement (Gibco) and plated on PDL-coated 96 MTPs (Corning #356640). Virus (ssAAV-1/2-hSyn1-hM4D[Gi]_mCherry-WPRE-hGHp[A]) transduction was performed immediately after plating. Cells were maintained at 37 °C (5% CO2 and 10% O2) in a humidified incubator. A half feed medium change was done on DIV8. Final assay conditions used for evaluating activity of compounds were 0.95 × 10^5 cells/cm^2, transduced with 10.000 multiplicity of infection and measured on DIV9.
Medium was removed and cells were incubated in assay buffer (HBSS, Gibco, 10 mM HEPES, pH 7.4) containing 4 µM Fluo-4AM (Thermo Fischer Scientific) and 0.1% Pluronic F-127 (Thermo Fischer Scientific #P3000MP) for 1 h at room temperature in the dark. Loading buffer was then replaced with assay buffer. After 10 min, assay plates were measured in the FLIPR tetra (Molecular Devices, California, USA) using green fluorescence filter settings (excitation 470–495 nm, emission 515–575 nm). Fluorescence signals were recorded at 1 s intervals (0.4 s exposure time). Compound addition was automated in a single addition protocol. Tested compounds (concentrations:0.3 nM–1 µM; retigabine at 30 µM) were added after recording a baseline response for 5 min followed by another 5 min for recording compound effects on Ca^2+ oscillations. Each compound dose was repeated on three individual plates in duplicates.
Time-series raw fluorescence traces recorded from the FLIPR assay were analysed by detecting Ca^2+ peaks based on a fixed amplitude threshold[19]. The change in oscillation frequency was determined by counting the number of peaks in a defined time interval (5 min) before and after addition of the tested compound and calculating the Ca^2+ oscillations frequency from their number. […] For visualisation, all data were transferred to GraphPad Prism 7 (Graphpad Software, Inc., CA, USA).

α1A adrenoreceptor = biological target: T2, α1A adrenoreceptor (Homo sapiens, UniProt P35348); assay: Off-target radioligand binding; conditions: 10 μM compound
T2 construct: expressed in transfected cells; host or cells: HEK-293 or CHO

D1 dopamine receptor = biological target: T3, D1 dopamine receptor (Homo sapiens, UniProt P21728); assay: Off-target radioligand binding; conditions: 10 μM compound
T3 construct: expressed in transfected cells; host or cells: HEK-293 or CHO
T3 sequence (P21728 whole entry): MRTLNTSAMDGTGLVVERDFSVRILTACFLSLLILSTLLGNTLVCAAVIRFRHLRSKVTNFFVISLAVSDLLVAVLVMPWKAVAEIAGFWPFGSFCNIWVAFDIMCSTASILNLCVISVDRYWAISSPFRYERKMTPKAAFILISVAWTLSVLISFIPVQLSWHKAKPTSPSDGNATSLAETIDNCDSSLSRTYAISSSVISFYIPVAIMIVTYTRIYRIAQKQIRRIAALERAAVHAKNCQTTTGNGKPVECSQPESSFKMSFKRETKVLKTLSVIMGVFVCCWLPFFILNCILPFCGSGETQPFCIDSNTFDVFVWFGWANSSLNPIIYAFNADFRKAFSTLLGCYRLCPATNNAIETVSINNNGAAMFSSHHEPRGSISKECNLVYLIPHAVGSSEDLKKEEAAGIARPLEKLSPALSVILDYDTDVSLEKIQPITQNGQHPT

D2 dopamine receptor = biological target: T4, D2 dopamine receptor (Homo sapiens, UniProt P14416); assay: Off-target radioligand binding; conditions: 10 μM compound
T4 construct: expressed in transfected cells; host or cells: HEK-293 or CHO

H1 histamine receptor = biological target: T5, H1 histamine receptor (Homo sapiens, UniProt P35367); assay: Off-target radioligand binding; conditions: 10 μM compound
T5 construct: expressed in transfected cells; host or cells: HEK-293 or CHO

M1 muscarinic receptor = biological target: T6, M1 muscarinic receptor (Homo sapiens, UniProt P11229); assay: Off-target radioligand binding; conditions: 10 μM compound
T6 construct: expressed in transfected cells; host or cells: HEK-293 or CHO
T6 sequence (P11229 whole entry): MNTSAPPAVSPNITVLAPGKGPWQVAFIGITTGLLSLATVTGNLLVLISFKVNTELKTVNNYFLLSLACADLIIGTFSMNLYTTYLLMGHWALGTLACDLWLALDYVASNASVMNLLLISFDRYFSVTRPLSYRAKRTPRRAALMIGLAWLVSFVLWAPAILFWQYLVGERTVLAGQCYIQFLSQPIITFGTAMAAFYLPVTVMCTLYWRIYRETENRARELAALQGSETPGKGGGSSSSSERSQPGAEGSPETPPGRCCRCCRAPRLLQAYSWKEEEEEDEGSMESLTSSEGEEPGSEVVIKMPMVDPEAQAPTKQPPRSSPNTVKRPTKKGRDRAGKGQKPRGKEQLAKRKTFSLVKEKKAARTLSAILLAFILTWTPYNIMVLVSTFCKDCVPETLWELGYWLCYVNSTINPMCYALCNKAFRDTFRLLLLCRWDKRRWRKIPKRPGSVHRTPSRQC

M2 muscarinic receptor = biological target: T7, M2 muscarinic receptor (Homo sapiens, UniProt P08172); assay: Off-target radioligand binding; conditions: 10 μM compound
T7 construct: expressed in transfected cells; host or cells: HEK-293 or CHO

M3 muscarinic receptor = biological target: T8, M3 muscarinic receptor (Homo sapiens, UniProt P20309); assay: Off-target radioligand binding; conditions: 10 μM compound
T8 construct: expressed in transfected cells; host or cells: HEK-293 or CHO
T8 sequence (P20309 whole entry): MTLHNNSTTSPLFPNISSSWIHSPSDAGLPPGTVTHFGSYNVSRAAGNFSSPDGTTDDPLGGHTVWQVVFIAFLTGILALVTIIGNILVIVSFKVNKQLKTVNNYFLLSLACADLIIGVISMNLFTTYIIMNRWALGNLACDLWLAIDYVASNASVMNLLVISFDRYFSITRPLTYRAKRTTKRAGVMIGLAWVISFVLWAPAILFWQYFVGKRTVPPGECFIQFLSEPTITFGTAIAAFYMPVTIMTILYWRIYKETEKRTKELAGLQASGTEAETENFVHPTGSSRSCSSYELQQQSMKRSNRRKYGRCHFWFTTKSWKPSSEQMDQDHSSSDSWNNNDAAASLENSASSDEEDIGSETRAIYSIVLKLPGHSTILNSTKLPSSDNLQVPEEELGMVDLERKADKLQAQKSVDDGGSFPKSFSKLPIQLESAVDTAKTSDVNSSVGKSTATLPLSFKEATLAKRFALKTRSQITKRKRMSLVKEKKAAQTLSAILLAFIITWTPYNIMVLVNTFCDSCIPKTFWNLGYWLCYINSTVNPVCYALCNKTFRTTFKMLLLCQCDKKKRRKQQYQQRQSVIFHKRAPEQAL

[2] = biological target: T9, 5-HT1A serotonin receptor (Homo sapiens, UniProt P08908); assay: Off-target radioligand binding; conditions: 10 μM compound
T9 construct: expressed in transfected cells; host or cells: HEK-293 or CHO
T9 sequence (P08908 whole entry): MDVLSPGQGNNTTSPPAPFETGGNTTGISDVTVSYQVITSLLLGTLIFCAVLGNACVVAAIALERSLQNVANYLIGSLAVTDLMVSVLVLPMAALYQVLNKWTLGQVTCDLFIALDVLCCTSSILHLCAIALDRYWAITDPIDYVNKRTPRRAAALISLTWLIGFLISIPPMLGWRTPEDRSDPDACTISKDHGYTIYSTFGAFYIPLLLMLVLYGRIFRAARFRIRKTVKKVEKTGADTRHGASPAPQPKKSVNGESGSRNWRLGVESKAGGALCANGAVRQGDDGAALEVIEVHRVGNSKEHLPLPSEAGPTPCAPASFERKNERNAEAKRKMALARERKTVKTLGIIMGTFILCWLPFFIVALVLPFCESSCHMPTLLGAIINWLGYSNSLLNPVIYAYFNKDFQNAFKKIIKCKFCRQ

[3] = test system: 5-HT1B serotonin receptor; assay: Off-target radioligand binding; set-up: species or system human; conditions: 10 μM compound
[4] = biological target: T10, 5-HT2A serotonin receptor (Homo sapiens, UniProt P28223); assay: Off-target radioligand binding; conditions: 10 μM compound
T10 construct: expressed in transfected cells; host or cells: HEK-293 or CHO
Protocol: Receptors and transporters of interest were overexpressed in either human recombinant human embryonic kidney (HEK)-293 or Chinese hamster ovary (CHO) cells. […] Results are expressed as percent inhibition of control-specific binding of the radioactively labelled ligand specific for the respective target. For enzyme inhibition, the effect was calculated as a percent inhibition of control enzyme activity. […] All presented values are the mean of two experiments.

[5] = biological target: T11, 5-HT2B serotonin receptor (Homo sapiens, UniProt P41595); assay: Off-target radioligand binding; conditions: 10 μM compound
T11 construct: expressed in transfected cells; host or cells: HEK-293 or CHO

δ opioid receptor = biological target: T12, δ opioid receptor (Homo sapiens, UniProt P41143); assay: Off-target radioligand binding; conditions: 10 μM compound
T12 construct: expressed in transfected cells; host or cells: HEK-293 or CHO
T12 sequence (P41143 whole entry): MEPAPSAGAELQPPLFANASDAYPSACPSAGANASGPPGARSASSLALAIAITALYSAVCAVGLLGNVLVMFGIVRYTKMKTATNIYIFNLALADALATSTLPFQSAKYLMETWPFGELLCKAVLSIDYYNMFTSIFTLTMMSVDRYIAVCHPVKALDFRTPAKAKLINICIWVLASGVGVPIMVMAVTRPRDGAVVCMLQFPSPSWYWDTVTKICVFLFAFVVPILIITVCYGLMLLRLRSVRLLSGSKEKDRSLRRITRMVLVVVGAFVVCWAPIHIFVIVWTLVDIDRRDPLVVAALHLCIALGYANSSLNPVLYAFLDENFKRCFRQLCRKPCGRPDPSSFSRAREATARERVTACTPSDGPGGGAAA

κ opioid receptor = assay: Off-target radioligand binding; set-up: species or system human; conditions: 10 μM compound
μ opioid receptor = biological target: T13, μ opioid receptor (Homo sapiens, UniProt P35372); assay: Off-target radioligand binding; conditions: 10 μM compound
T13 construct: expressed in transfected cells; host or cells: HEK-293 or CHO
T13 sequence (P35372 whole entry): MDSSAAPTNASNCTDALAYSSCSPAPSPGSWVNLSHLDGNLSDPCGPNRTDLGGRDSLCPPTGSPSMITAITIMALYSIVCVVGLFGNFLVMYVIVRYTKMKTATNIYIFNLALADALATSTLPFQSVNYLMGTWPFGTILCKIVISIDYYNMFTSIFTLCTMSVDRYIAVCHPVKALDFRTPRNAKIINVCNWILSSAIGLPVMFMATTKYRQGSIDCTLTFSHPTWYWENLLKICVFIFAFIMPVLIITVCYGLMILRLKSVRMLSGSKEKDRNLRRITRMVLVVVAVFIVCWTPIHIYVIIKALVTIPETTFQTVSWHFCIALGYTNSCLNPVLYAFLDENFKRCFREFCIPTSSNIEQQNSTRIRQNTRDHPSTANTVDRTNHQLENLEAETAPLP

5-HT3 serotonin receptor = 5-HT3 serotonin receptor (Homo sapiens, UniProt P46098); assay: Off-target radioligand binding; conditions: 10 μM compound
COX1 = COX1 (Homo sapiens, UniProt P23219); assay: Off-target enzyme assay; format: biochemical; conditions: 10 μM compound, not shown
COX1, sequence (P23219 24-599): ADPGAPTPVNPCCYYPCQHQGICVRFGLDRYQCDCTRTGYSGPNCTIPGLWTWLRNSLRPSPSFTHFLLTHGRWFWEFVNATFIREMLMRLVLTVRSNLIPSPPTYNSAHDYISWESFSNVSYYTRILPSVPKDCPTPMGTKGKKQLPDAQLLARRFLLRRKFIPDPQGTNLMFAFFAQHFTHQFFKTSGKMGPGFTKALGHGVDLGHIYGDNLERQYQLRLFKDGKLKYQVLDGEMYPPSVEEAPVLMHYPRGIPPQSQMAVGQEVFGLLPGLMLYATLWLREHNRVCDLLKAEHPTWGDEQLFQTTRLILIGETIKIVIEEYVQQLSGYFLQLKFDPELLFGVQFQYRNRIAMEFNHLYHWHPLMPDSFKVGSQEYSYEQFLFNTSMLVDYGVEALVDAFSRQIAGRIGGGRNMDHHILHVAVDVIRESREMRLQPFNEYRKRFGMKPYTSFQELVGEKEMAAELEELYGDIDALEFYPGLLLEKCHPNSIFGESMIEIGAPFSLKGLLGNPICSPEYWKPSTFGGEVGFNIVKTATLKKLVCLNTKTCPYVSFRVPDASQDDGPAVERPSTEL

COX2 = COX2 (Homo sapiens, UniProt P35354); assay: Off-target enzyme assay; format: biochemical; conditions: 10 μM compound, not shown
PDE3A = PDE3A (Homo sapiens, UniProt Q14432); assay: Off-target enzyme assay; format: biochemical; conditions: 10 μM compound, not shown
PDE3A, sequence (Q14432 whole entry, species assumed): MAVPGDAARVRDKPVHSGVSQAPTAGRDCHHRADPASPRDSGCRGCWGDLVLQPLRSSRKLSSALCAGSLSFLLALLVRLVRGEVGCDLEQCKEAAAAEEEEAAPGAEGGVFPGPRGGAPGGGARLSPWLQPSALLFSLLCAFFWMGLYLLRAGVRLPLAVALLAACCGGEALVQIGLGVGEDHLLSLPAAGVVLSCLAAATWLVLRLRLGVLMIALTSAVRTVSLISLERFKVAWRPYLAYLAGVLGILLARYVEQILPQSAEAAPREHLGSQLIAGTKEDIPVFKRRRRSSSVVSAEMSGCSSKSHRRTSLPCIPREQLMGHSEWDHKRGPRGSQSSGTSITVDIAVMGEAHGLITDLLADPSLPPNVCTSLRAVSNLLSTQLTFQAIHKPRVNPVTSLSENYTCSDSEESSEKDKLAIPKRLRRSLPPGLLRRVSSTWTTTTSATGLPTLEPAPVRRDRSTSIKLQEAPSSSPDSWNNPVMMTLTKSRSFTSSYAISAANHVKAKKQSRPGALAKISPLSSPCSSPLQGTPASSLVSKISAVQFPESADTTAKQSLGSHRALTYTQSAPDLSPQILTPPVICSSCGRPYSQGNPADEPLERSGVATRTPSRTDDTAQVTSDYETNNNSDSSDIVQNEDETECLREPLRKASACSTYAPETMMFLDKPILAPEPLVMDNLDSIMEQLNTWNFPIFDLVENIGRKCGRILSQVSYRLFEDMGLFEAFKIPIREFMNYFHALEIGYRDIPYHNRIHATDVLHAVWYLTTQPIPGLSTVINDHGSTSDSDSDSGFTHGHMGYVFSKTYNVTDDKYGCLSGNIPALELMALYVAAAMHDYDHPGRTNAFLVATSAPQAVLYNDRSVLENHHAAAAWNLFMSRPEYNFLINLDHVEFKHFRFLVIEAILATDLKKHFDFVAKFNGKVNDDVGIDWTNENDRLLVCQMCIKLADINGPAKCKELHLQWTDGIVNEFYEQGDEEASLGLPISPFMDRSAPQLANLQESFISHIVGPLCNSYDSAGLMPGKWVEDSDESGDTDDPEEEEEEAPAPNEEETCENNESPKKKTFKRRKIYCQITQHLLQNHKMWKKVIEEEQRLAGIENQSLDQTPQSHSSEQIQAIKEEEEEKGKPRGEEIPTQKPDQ

PDE4D2 = PDE4D2 (Homo sapiens, UniProt Q08499); assay: Off-target enzyme assay; format: biochemical; conditions: 10 μM compound, not shown
Lck kinase = Lck kinase (Homo sapiens, UniProt P06239); assay: Off-target enzyme assay; format: biochemical; conditions: 10 μM compound, not shown
AChE = AChE (Homo sapiens, UniProt P22303); conditions: 10 μM compound, not shown
AChE, sequence (P22303 32-614): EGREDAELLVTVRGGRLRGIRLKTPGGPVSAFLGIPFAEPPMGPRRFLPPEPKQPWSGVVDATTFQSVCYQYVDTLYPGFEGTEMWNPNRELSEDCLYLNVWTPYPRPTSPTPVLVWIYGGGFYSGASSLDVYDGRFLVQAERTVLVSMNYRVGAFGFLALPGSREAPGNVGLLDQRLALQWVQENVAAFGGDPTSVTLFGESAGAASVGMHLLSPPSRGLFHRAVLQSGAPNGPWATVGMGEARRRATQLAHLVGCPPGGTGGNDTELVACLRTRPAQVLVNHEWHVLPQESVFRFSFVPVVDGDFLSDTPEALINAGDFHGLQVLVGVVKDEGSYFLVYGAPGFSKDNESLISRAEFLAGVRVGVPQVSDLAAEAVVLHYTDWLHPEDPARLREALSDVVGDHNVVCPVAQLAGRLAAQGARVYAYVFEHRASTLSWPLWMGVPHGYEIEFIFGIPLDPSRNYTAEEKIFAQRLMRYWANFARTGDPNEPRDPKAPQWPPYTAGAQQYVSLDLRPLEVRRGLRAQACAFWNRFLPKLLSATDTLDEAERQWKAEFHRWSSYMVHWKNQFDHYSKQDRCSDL

hM3Dq = test system: hM3Dq; set-up: method as in PMID 25587888; conditions: FLIPR assay; cited from earlier work
[6] = brain (cortical tissue), 3.5 mg/kg
[7] = mice, 15 min after 3.0 mg/kg Cmpd-21 i.p.
[8] = mice, 60 min after 3.0 mg/kg Cmpd-21 i.p.

CN1CCN(C2=Nc3cc(Cl)ccc3Nc3ccccc32)CC1 [CLZ, clozapine]
attentional accuracy (C57BL/6 J mice; CLZ 0.1 mg/kg i.p., p = 0.0439): mild decrease
omissions (inattentiveness) (C57BL/6 J mice; CLZ 1 mg/kg i.p., p = 0.0108): mild increase
behavioural changes in 5-CSRTT parameters (C57BL/6 J mice; CLZ 0.1, 0.3 and 1 mg/kg i.p., vs vehicle): did not produce any significant behavioural changes in most 5-CSRTT parameters
Kp (in vivo; C57BL/6J, CSF, 1 mg/kg): ~0.01
concentration at 15 min (in vivo; CSF, 1 mg/kg): 1.9 nM
concentration at 15 min (in vivo; [6]): ~427 nM
concentration at 60 min (in vivo; [6]): 406 nM
Kp at 15 min (in vivo; brain, 1 mg/kg): ~6
concentration at 15 min (in vivo; brain, 1 mg/kg): 2060 nM
concentration at 60 min (in vivo; brain, 1 mg/kg): 1020 nM
Tmax (in vivo; plasma, brain and CSF, 1 mg/kg): 15 min
concentration at 15 min (in vivo; plasma, 1 mg/kg): 344 nM
concentration at 60 min (in vivo; plasma, 1 mg/kg): 123 nM
mean CLZ plasma concentration as % of mean CNO plasma concentration ([1]; mice, 15 min after i.p. 3.5 mg/kg CNO): approximately 3.3%
free (CSF) concentration as % of the brain concentration ([1]; mice, after i.p. 1 mg/kg CLZ): approximately 0.1%
concentration in CSF ([1]; mice, all sampling points (15, 30, 60 min) after i.p. 3.5 mg/kg CNO, detection limit): 1 to 2.5 nM
decline within 60 min in plasma and brain tissue ([1]; mice, single injection of CLZ): approximately 2 fold

c1ccc2c(c1)N=C(N1CCNCC1)c1ccccc1N2 [Cmpd-21, compound 21]
EC50 (hM4Di): 2.95 nM
behavioural changes in 5-CSRTT parameters (C57BL/6 J mice; Cmpd-21 0.3, 1 and 3 mg/kg i.p.): did not produce any significant behavioural changes in any 5-CSRTT parameters
competitive inhibition of ligand binding (α1A adrenoreceptor): > 50%
competitive inhibition of ligand binding (D1 dopamine receptor): > 50%
competitive inhibition of ligand binding (D2 dopamine receptor): > 50%
competitive inhibition of ligand binding (H1 histamine receptor): > 50%
competitive inhibition of ligand binding (M1 muscarinic receptor): > 50%
competitive inhibition of ligand binding (M2 muscarinic receptor): > 50%
competitive inhibition of ligand binding (M3 muscarinic receptor): > 50%
competitive inhibition of ligand binding [2]: > 50%
competitive inhibition of ligand binding [3]: > 50%
competitive inhibition of ligand binding [4]: > 50%
competitive inhibition of ligand binding [5]: > 50%
competitive inhibition of ligand binding (δ opioid receptor): > 50%
competitive inhibition of ligand binding (κ opioid receptor): > 50%
competitive inhibition of ligand binding (μ opioid receptor): > 50%
competitive inhibition of ligand binding (5-HT3 serotonin receptor): > 50%
inhibition (COX1): < 25%
inhibition (COX2): 60%
inhibition (PDE3A): < 25%
inhibition (PDE4D2): < 25%
inhibition (Lck kinase): < 25%
inhibition (AChE): < 25%
EC50 (hM3Dq): 1.7 nM
mean brain concentration [1, 7]: 722 nM
mean concentration in CSF [1, 7]: 52 nM
mean concentration in plasma [1, 7]: 5833 nM
CSF concentration as % of peak value [1, 8]: 54%
mean brain concentration [1, 8]: 1273 nM
plasma concentration as % of peak value [1, 8]: 57%
time of peak plasma and CSF levels ([1]; mice, after 3.0 mg/kg Cmpd-21 i.p., earliest time point of measurement): 15 min
conversion to CLZ or CNO ([1]; mice, data not shown): did not detect any conversion

Clc1ccc2c(c1)N=C(N1CCNCC1)c1ccccc1N2 [NorCLZ, norclozapine]
detection of metabolite in plasma ([1]; mice, 15, 30, 60 min after i.p. 1 mg/kg CLZ): detectable in all plasma samples
